Assays:
[1] = system: r(G4C2)^exp-containing C9orf72 transcript; test: C9orf72 transcript RT-qPCR in c9ALS/FTD iPSNs; type: cell-based, human
Method: Differentiated motor neurons (iPSNs) were derived from the iPSCs listed in the previous section. The differentiation process was based on a previously reported method with slight modifications^33,34. Briefly, iPSCs were plated into Matrigel-coated 100 mm dishes (30-40% confluence). Neuroepithelial induction was performed by replacing the Basal medium with Stage 1 medium [47.5% IMDM (Iscove's Modified Dulbecco's Medium), 47.5% F12 medium, 1% NEAA (Non-Essential Amino Acids) (Life Technologies), 2% B27 (Invitrogen), 1% N2 (Invitrogen), 1% PSA (Penicillin-Streptomycin-Amphotericin), 0.2 μM LDN193189 (Stemgent), 10 μM SB431542 (STEMCELL Technologies) and 3 μM CHIR99021 (Sigma-Aldrich)]. The medium was changed daily for 6 days, after which cells were detached from plates using Accutase (STEMCELL Technologies). Cells were seeded into 6-well plates (1.5×10^6 cells/well) in 3 mL of Stage 2 medium [Stage 1 medium supplemented with 0.1 μM All-trans RA (Sigma-Aldrich) and 1 μM SAG (Cayman Chemicals)]. Cells were maintained in Stage 2 medium, with daily medium changes, through Day 11 of the differentiation process. On Day 12, the Stage 2 cell medium was removed and replaced with Stage 3 medium [47.5% IMDM, 47.5% F12 medium, 1% NEAA, 2% B27, 1% N2, 1% PSA, 0.1 μM Compound E (Millipore; Catalog #: 565790), 2.5 μM DAPT (Sigma-Aldrich), 0.1 μM db-cAMP (Millipore), 0.5 μM All-trans RA, 0.1 μM SAG, 20 ng/mL ascorbic acid, 10 ng/mL BDNF (STEMCELL Technologies), and 10 ng/mL GDNF (STEMCELL Technologies)]. This medium was replaced every three days until the end of the differentiation process. Typically, a minimum of 18 days is required to produce immature differentiated motor neurons; 30 days of differentiation is the standard for producing mature differentiated spinal neurons. The cells can be maintained in medium for an additional 14-28 days after reaching maturation. […]
For iPSNs cells were differentiated, following the protocol outlined above, until Day 15. […] RNA was extracted as described above and the expression levels of C9orf72 variants was determined by RT-qPCR and normalized to GAPDH. […]

[2] = system: C9ORF72 protein; test: Western blot of total C9ORF72 protein in c9ALS/FTD iPSCs; type: cell-based, human
Method: Protein samples were prepared as described for analysis by the electrochemical luminescent sandwich immunoassay. Approximately 20 μg total protein was loaded onto a 4-20% Mini-PROTEAN® TGX™ Precast Protein Gel (Bio-Rad) and run at 130 V for 1 hour in Tris-Glycine/SDS running buffer (25 mM Tris base, 190 mM glycine, 0.1% SDS, pH 8.3). Following electrophoresis, the protein was transferred to a PVDF membrane using Tris-Glycine transfer buffer (25 mM Tris base, 190 mM glycine, 20% methanol, pH 8.3). After transfer, the membrane was washed with 1×TBST and blocked in a solution of 5% (w/v) milk in 1×TBST for 30 minutes at room temperature with shaking. […] The membrane was then washed three times with 1×TBST and protein expression was quantified using SuperSignal West Pico Plus Chemiluminescent Substrate (Life Technologies), per the manufacturer's protocol, and film exposure. To quantify β-actin expression, the membrane was washed with 1×TBST and stripped using 1×Stripping Buffer (200 mM glycine, 1% (v/v) Tween-20, 0.1% (w/v) SDS, pH 2.2). […] The membrane was washed with 1×TBST and incubated with 1:5,000 anti-mouse IgG horseradish-peroxidase secondary antibody conjugate (Cell Signaling Technology) in 1×TBST at room temperature for 1 hour. β-actin protein expression was quantified as previously described.

[3] = system: r(GGCC)8; test: Affinity by MST, base-paired control r(GGCC)8; type: binding; settings: base-paired control r(GGCC)8, concentrations up to 20 μM
Method: Affinity measurements were performed by MST using a Monolith NT.115 system (NanoTemper Technologies) with 5′-Cy5-labeled r(G4C2)8 (SEQ ID NO: 1), 5′-Cy5-labeled d(G4C2)8 (SEQ ID NO: 1), and 5′-Cy5-labeled base pair control r(G2C2)4GAAA(G2C2)4 (SEQ ID NO: 49). All oligos were deprotected according to the manufacturer's recommended protocol. Samples were prepared as previously described^30. Briefly, RNA or DNA (5 nM) was folded in 1×MST Buffer (8 mM Na2HPO4, 185 mM NaCl, 1 mM EDTA) by heating at 95° C. for 5 minutes and slowly cooling to room temperature. Tween-20 was then added to a final concentration of 0.05% (v/v). Serial dilutions of compound in 1×MST Buffer containing 5 nM folded nucleic acid were then carried out to yield the desired compound concentrations. Samples were incubated for 90 minutes at room temperature and then loaded into premium capillaries (NanoTemper Technologies). The following parameters were used on the Monolith NT.115 system: 10% LED, 20-80% MST power, Laser-On time=30 s, Laser-Off time=5 seconds. Fluorescence was detected using excitation wavelengths of 605-645 nm and emission wavelengths of 680-685 nm. The resulting data were analyzed by thermophoresis analysis and fit using the quadratic binding equation in the MST analysis software (NanoTemper Technologies). The dissociation constant was determined using Equation 1. […]

Q: How did the “exon 1b transcript abundance” value [1] turn out when `CCOC(=O)C1=C(Nc2ccccc2)S/C(=C\c2ccc(OCCOCCOCCOCCNC(=O)CCCOc3ccc4c(c3)c3cc5c(C(=O)N[C@H](C)CN(C)C)nccc5c(C)c3n4C)c(O)c2)C1=O` [ALS Compound Formula I] was run?
A: Its value is “unaffected”.

Q: What about the “decrease in C9orf72 exon 2-3 abundance” value ([1]; 500 nM) of the same compound?
A: Its value is ~40%.

Q: What about the “decrease in C9orf72 intron 1 levels” value ([1]; 500 nM) of the same compound?
A: The value was ~50%.

Q: And the “effect on healthy C9ORF72 protein levels” value [2]?
A: Its value is “no effect”.

Q: What about the saturable binding [3] of the same compound?
A: Its saturable binding is “No saturable binding”.

Source: US20250032624A1, “SMALL MOLECULE DEGRADATION METHODS FOR TREATING ALS/FTD” (University of Florida Research Foundation, Incorporated, priority 2021, published 2025)
